Data: patent US20020132845A1, “Compositions and methods for the prevention and treatment of tissue ischemia” (priority 2000, published 2002)

Test system: transient focal cerebral ischemia induced by Middle Cerebral Artery Occlusion (MCAO)
Experiment: Animal cerebral infarct assay: two-hour Middle Cerebral Artery Occlusion (MCAO) with reperfusion
Type: in vivo, rat
Conditions: intraventricular (i.c.v.), 0.0067 mg/kg to 0.67 mg/kg
Excerpt: This assay is used to assess the efficacy of the test agents in protecting the brain against necrosis following cerebral ischemia induced in rats. Middle Cerebral Artery Occlusion (MCAO) is a widely used technique to induce transient focal cerebral ischemia in animal models. […] Furthermore, this model accurately represents the involvement of middle cerebral artery (MCA), the most affected vessel in human stroke, and also allows reperfusion as it happens in humans. MCAO by a two-hour occlusion is used to produce the maximum size of cortical infarction without increased mortality at twenty-four hours. Male Wistar rats (Hadan, Ind.) weighing 300-350 g were allowed free access to water and commercial rodent diet under standard laboratory conditions. The room temperature was maintained at 20-23° C. and room illumination was on a 12/12-hour light/dark cycle. The rats were acclimatized to the laboratory environment 5 to 7 days prior to the study. Before surgery, the animals were fasted overnight, but had free access to water. The rats were anesthetized with 3.0% isoflurane (Aerrane, Front Dodge, Iowa) in […] and the animal's neck was shaved and sterilized before the operation. The animals were subjected to two hours MCAO using a modified intraluminal filament technique. A midline incision on the ventral part of the neck was made to expose external and internal carotid arteries. The right external and common carotid arteries were ligated by a suture (silk 5/0, Carlisle Laboratories, Farmers Branch, Tex.) and the right internal artery was temporarily ligated by a microvascular clip (Fine Science Tool Inc., Foster City, Calif.). A small incision was made in the common carotid artery and a nylon filament, its tip rounded by heating, prepared from a fishing line (Stren Fishing Lines, Wilmington, Del.) was inserted from the right common carotid artery. The filament was advanced into the internal carotid artery 18-20 mm from the point of bifurcation of internal and external arteries and a suture was tightly ligated around the filament. Two hours post occlusion, the animals were re-anesthetized to allow reperfusion for the remaining of the experiment by removal of the filament. The anesthetized animal were placed on a stereotaxic apparatus (Harvard Apparatus, S. Natick, Mass.). Anesthesia was maintained by inhalation of 3.0% isoflurane in […] throughout the entire procedure. The scalp was shaved and sterilized prior to surgery. A midline sagittal incision about 3 cm long was made slightly behind the eyes to expose the skull. The skull was scraped with a rounded end spatula to remove periosteal connective tissue. A bur hole was placed 1.5 mm lateral, 1 mm posterior to the left of the bregma to mark the left lateral ventricle. A brain infusion cannula (ALZET CO. Palo Alto, Calif.) was inserted 4 mm deep into the hole. The desired depth was adjusted by attaching spacers to the cannula. The cannula was attached to a 4-cm silastic catheter (Helix Medical Inc.) fixed in place with dental cement (Ketac-cement, Norristown, Pa.). The catheter was either attached to a primed osmotic pump placed subcutaneously between the shoulder blades for permanent infusion or to a syringe for a short infusion. Anesthesia was maintained by inhalation of 3.0% isoflurane in […] throughout the entire procedure. The exterior site of the right femoral vein was shaved and sterilized prior to surgery. A 3 cm incision was made in the right groin region and the femoral vein was isolated. A small incision was made on the femoral vein temporarily ligated with a microvascular clip to introduce and advance a polyethylene (PE-50) catheter (Becton. Dickinson and Co., Sparks, Md.). The catheter was secured in place with suture (silk 5/0, Carlisle Laboratories, Farmers Branch, Tex.). The other end of the catheter was attached to a syringe filled with the heparinized saline for the bolus injection. […]

Q: For bromo-quercetin, which “reductions of infarct volumes” value is on record?
A: The value was “greater than 50%”.
